Series [1] deals with Rattus norvegicus. Nature of the series: Toxicity in po dosed Wistar rat assessed as gastric irritation at 20 to 100 mg/kg, po. The format is organism-based, Stomach. Particulars: in vivo. Set-up: dose 20-100 mg/kg, route oral.
For series [2], the system named is Rattus norvegicus. Nature of the series: Antiinflammatory activity in Wistar rat assessed as reduction in carrageenan-induced paw edema at 100 mg/kg, po treated 2 hrs before carrageenan challenge measured after 3 hrs. Format: functional. A general note: In the carrageenan paw model, swelling and tenderness develop within hours.
Series [3] deals with Rattus norvegicus. Nature of the series: Antiinflammatory activity in Wistar rat assessed as reduction in carrageenan-induced paw edema at 20 mg/kg, po treated 2 hrs before carrageenan challenge measured after 3 hrs. The format is functional.
The subject of series [4] is Rattus norvegicus. Put plainly: Toxicity in po dosed Wistar rat assessed as gastric irritation at 10 to 50 mg/kg, po. Set-up: dose 10-50 mg/kg, route oral. The format is organism-based, Stomach. To be noted: in vivo.
Series [5] deals with Rattus norvegicus. Nature of the series: Antiinflammatory activity in Wistar rat assessed as reduction in carrageenan-induced paw edema at 10 mg/kg, po treated 2 hrs before carrageenan challenge measured after 3 hrs. Format: functional.
Series [6] deals with Rattus norvegicus. Nature of the series: Antiinflammatory activity in Wistar rat assessed as reduction in carrageenan-induced paw edema at 50 mg/kg, po treated 2 hrs before carrageenan challenge measured after 3 hrs. The format is functional.
A short description of series [7]: Toxicity in po dosed Wistar rat. The format is organism-based. To be noted: in vivo.
In series [8] the test system is Rattus norvegicus. Nature of the series: Antiinflammatory activity in po dosed Wistar rat assessed as reduction in carrageenan-induced paw edema treated 2 hrs before carrageenan challenge measured after 3 hrs. The format is functional.

Turning to `CC1Oc2c(Cl)cc(CC(=O)O)cc2C1C.NC1CCCCC1` (configuration not stated), the Activity result in series [1] is “Toxic”. In series [2], the inhibition in vivo at 100 mg/kg turned out to be 30%. For the same compound, the inhibition in vivo at 20 mg/kg in series [3] turned out to be 24%.
Taken in the same sequence, the figures for `CC1(C)Cc2cc(CCCC(=O)O)cc(Cl)c2O1` were “Toxic”, 32% and 32%.
`CC1(C)Cc2cc(CC(=O)O)cc(Cl)c2O1`: the Activity entry in series [1] is listed as “Toxic”. The inhibition in vivo at 100 mg/kg in series [2] came to 37%. The inhibition in vivo at 20 mg/kg in series [3] turned out to be 30%.
For `CC1(C)Cc2cc(C(=O)CCC(=O)O)cc(Cl)c2O1`, in that order: “Toxic”, 37% and 24%.
For `CC1(C)Cc2cc(CC(N)=O)cc(Cl)c2O1`, in that order: “Toxic”, 31% and 25%.
For the compound `CCCCC1C(=O)N(c2ccccc2)N(c2ccccc2)C1=O` [PHENYLBUTAZONE], the Activity entry in series [4] was “Toxic”. The inhibition in vivo at 10 mg/kg in series [5] is 24%. Also, the inhibition in vivo at 50 mg/kg in series [6] stood at 51%.
As for `CC1Cc2cc(C(C)C(=O)O)cc(Cl)c2O1.NC1CCCCC1` (configuration not stated), the Activity entry in series [1] is on record as “Toxic”. Further, the inhibition in vivo at 100 mg/kg in series [2] was determined as 57%. For the same compound, the inhibition in vivo at 20 mg/kg in series [3] is 35%.
For `CC1(C)Cc2cc(CC(=O)O)ccc2O1`, in that order: “Toxic”, 32% and 25%.
Taken in the same sequence, the figures for `CC1Cc2cc(CC(N)=O)cc(Cl)c2O1` (configuration not stated) were “Toxic”, 17% and 2%.
Taken in the same sequence, the figures for `CC1(C)Cc2cc(CC(=O)NO)cc(Cl)c2O1` were “Toxic”, 13% and 7%.
Regarding `CC1Cc2cc(CC(=O)O)cc(Cl)c2O1` (configuration not stated), the Activity entry in series [1] was “Toxic”. Moreover, the inhibition in vivo at 100 mg/kg in series [2] was determined as 27%. In series [3], the inhibition in vivo at 20 mg/kg was 20%.
For `CC1(C)Cc2cc(CC(=O)NO)ccc2O1`, in that order: “Toxic”, 9% and 5%.
As to `CC(C(=O)O)c1cc(Cl)c2c(c1)CC(C)(C)O2` (configuration not stated), the Activity entry in series [1] is listed as “Toxic”. Besides, in series [7], the LD50 stood at 720 mg/kg. Further, the inhibition in vivo at 100 mg/kg in series [2] came out at 58%. In series [3], the inhibition in vivo at 20 mg/kg was 45%. Further, the median effective dose (ED50) in series [8] was 45 mg/kg.
With `CC1(C)Cc2cc(C(=O)/C=C/C(=O)O)cc(Cl)c2O1`, in series [1], the Activity entry was “Toxic”. Further, in series [2], the inhibition in vivo at 100 mg/kg stood at 3%. For the same compound, the inhibition in vivo at 20 mg/kg in series [3] is 9%.
Taken in the same sequence, the figures for `CC1(C)Cc2cc(CC(N)=O)ccc2O1` were “Toxic”, 20% and 15%.

For orientation: inhibition in vivo means the relative decrease from the control value, in per cent. By LD50 is commonly meant the dose at which mortality reaches 50%. In general, ED50 refers to the dose that gives a 50% effect, or the effect in half of the subjects.

The values above are taken from ChEMBL document CHEMBL3272194, “Antiinflammatory activity of some 2,3-dihydrobenzofuran-5-acetic acids and related compounds” (J Med Chem, 1976).
